Results taken from paper PMC8339067 (NPJ Breast Cancer, 2021).
Where two headings read alike, the source gives them in different places. Blank lines part the entries; values can stand above or below the compound they belong to.

Experiments:
[1] = cited from earlier work
[2] = rats, single dose of the conjugate with trastuzumab, radiolabeled; cited from earlier work
[3] = Ribociclib plasma pharmacokinetics with T-DM1 (LC-MS/MS, noncompartmental); format: in vivo, human; conditions: for AUC: read-out: AUC24
Description: Additional samples were collected according to this same schedule after the drug was taken for at least 8 days consecutive without interruption to define its steady-state pharmacokinetics. […] The assay was validated and applied to the analysis of study samples according to the recommendations in the current U.S. Food and Drug Administration Guidance for Industry on Bioanalytical Method Validation (https://www.fda.gov/drugs/-guidance-compliance-regulatory-information/guidances-drugs). […] Actual time points were calculated as the difference between the blood sample collection time and the time that the drug was taken. The plasma concentration-time data were analyzed by noncompartmental methods using model 200 for extravascular drug input in WinNonlin Professional version 5.0.1 (Pharsight Corp, Mountain View, CA). The area under the plasma concentration-time curve from the time of dosing to the time of the last sample collected prior to administration of the next dose (AUC24) was estimated using the linear-log trapezoidal method. Total oral clearance (CL/F) was calculated as the dose divided by the AUC24 for the dose given on days 19–21. Pharmacokinetic parameters are reported as the geometric mean (geometric CV%) of the values for individual patients at each dose level. GraphPad Prism for Windows, version 8.4.3 (GraphPad Software, La Jolla, CA) was used for the statistical analysis and graphical presentation of the pharmacokinetic data.

[4] = single agent, cited from earlier work
[5] = 300 mg, dose no. 11-12 (steady state), 3 patients, geometric mean
[6] = 400 mg, dose no. 13 (steady state), 1 patient
[7] = 500 mg, dose no. 12 (steady state), 2 patients, geometric mean
[8] = 600 mg, dose no. 13 (steady state), 1 patient

SMILES: COc1cc2cc(c1Cl)N(C)C(=O)C[C@H](OC(=O)[C@H](C)N(C)C(=O)CCS)[C@]1(C)O[C@H]1[C@H](C)[C@@H]1C[C@@](O)(NC(=O)O1)[C@H](OC)/C=C/C=C(\C)C2 [DM1]
Half-life [1]: approximately 4 days | Time to complete clearance [2]: ≤ 5 days

Cmin ([3]; 300 mg, dose no. 1, 3 patients, geometric mean, lowest calibration concentration 1.0 ng/mL): < LLQ | CL/F [3, 5]: 38.6 L/h | Cmin [3, 5]: 141.7 ng/mL | Cmin ([3]; 400 mg, dose no. 1, 3 patients, geometric mean, lowest calibration concentration 1.0 ng/mL): < LLQ | CL/F [3, 6]: 47.4 L/h | Cmin [3, 6]: 125.6 ng/mL | Cmin ([3]; 500 mg, dose no. 1, 3 patients, geometric mean, lowest calibration concentration 1.0 ng/mL): < LLQ | AUC24 [3, 7]: 8,958 ng•h/mL | CL/F [3, 7]: 55.8 L/h | Cmax [3, 7]: 702.8 ng/mL | Cmin [3, 7]: 178.7 ng/mL | Cmin ([3]; 600 mg, dose no. 1, 3 patients, geometric mean, lowest calibration concentration 1.0 ng/mL): < LLQ | CL/F [3, 8]: 27.3 L/h | Cmin [3, 8]: 493.9 ng/mL | Overall geometric mean apparent oral clearance ([3]; from AUC24 at steady state, 7 patients, CV 28.1%): 42.1 L/h | AUC ([3]; human, plasma, oral, 300 mg, dose no. 1, 3 patients, geometric mean): 5330 ng·h/mL | Cmax ([3]; human, plasma, oral, 300 mg, dose no. 1, 3 patients, geometric mean, read-out: Cmax): 505 ng/mL | AUC ([3]; human, plasma, oral, 300 mg, dose no. 11-12 (steady state), 3 patients, geometric mean): 7770 ng·h/mL | Cmax ([3]; human, plasma, oral, 300 mg, dose no. 11-12 (steady state), 3 patients, geometric mean, read-out: Cmax): 608 ng/mL | AUC ([3]; human, plasma, oral, 400 mg, dose no. 1, 3 patients, geometric mean): 7980 ng·h/mL | Cmax ([3]; human, plasma, oral, 400 mg, dose no. 1, 3 patients, geometric mean, read-out: Cmax): 735 ng/mL | AUC ([3]; human, plasma, oral, 400 mg, dose no. 13 (steady state), 1 patient): 8430 ng·h/mL | Cmax ([3]; human, plasma, oral, 400 mg, dose no. 13 (steady state), 1 patient, read-out: Cmax): 871 ng/mL | AUC ([3]; human, plasma, oral, 500 mg, dose no. 1, 3 patients, geometric mean): 4830 ng·h/mL | AUC ([3]; human, plasma, oral, 600 mg, dose no. 1, 3 patients, geometric mean): 11800 ng·h/mL | Cmax ([3]; human, plasma, oral, 600 mg, dose no. 1, 3 patients, geometric mean, read-out: Cmax): 1270 ng/mL | AUC ([3]; human, plasma, oral, 600 mg, dose no. 13 (steady state), 1 patient): 22000 ng·h/mL | Cmax ([3]; human, plasma, oral, 600 mg, dose no. 13 (steady state), 1 patient, read-out: Cmax): 1740 ng/mL | Apparent oral clearance greater than with single agent ([3]; present trial versus single-agent 400 and 600 mg QD): 19–65%
SMILES: CN(C)C(=O)c1cc2cnc(Nc3ccc(N4CCNCC4)cn3)nc2n1C1CCCC1 [ribociclib]
Geometric mean apparent oral clearance ([4]; 400 mg QD, four patients, CV 59.2%): 35.3 L/h | Geometric mean apparent oral clearance ([4]; 600 mg QD, 53 patients, CV 65.7%): 25.5 L/h
